Data reported in ChEMBL document CHEMBL3124792, “Discovery and preclinical characterization of the cyclopropylindolobenzazepine BMS-791325, a potent allosteric inhibitor of the hepatitis C virus NS5B polymerase” (J Med Chem, 2014).

System: not listed separately
Assay: Permeability of the compound at pH 7.4 by PAMPA
Type: physicochemical
Conditions: read-out: permeability

Papp | Structure (SMILES)
47 ×10⁻⁶ cm/s | COc1ccc2c(c1)C1CC1(C(=O)N1CC(O)(C(F)(F)F)C1)Cn1c-2c(C2CCCCC2)c2ccc(C(=O)NS(=O)(=O)N(C)C)cc21 (racemic)
74 ×10⁻⁶ cm/s | COc1ccc2c(c1)C1CC1(C(=O)N1CC(O)(C(C)C)C1)Cn1c-2c(C2CCCCC2)c2ccc(C(=O)NS(=O)(=O)N(C)C)cc21 (racemic)
19 ×10⁻⁶ cm/s | COc1ccc2c(c1)C1CC1(C(=O)N1CC(O)(C3CC3)C1)Cn1c-2c(C2CCCCC2)c2ccc(C(=O)NS(=O)(=O)N(C)C)cc21 (racemic)
39 ×10⁻⁶ cm/s | COc1ccc2c(c1)C1CC1(C(=O)N1CC(O)(c3ccccc3)C1)Cn1c-2c(C2CCCCC2)c2ccc(C(=O)NS(=O)(=O)N(C)C)cc21 (racemic)

Second part, the compound before the results:

Structure (SMILES) | Papp
COc1ccc2c(c1)C1CC1(C(=O)N1CC3CCC(C1)N3)Cn1c-2c(C2CCCCC2)c2ccc(C(=O)NS(=O)(=O)N(C)C)cc21 (racemic) | 0.2 ×10⁻⁶ cm/s
CCN1CC2CCC(C1)N2C(=O)C12CC1c1cc(OC)ccc1-c1c(C3CCCCC3)c3ccc(C(=O)NS(=O)(=O)N(C)C)cc3n1C2 (racemic) | 41 ×10⁻⁶ cm/s

Biological target: T1, PXR (NR1I2) (Homo sapiens, UniProt O75469)
T1 sequence (O75469 whole entry): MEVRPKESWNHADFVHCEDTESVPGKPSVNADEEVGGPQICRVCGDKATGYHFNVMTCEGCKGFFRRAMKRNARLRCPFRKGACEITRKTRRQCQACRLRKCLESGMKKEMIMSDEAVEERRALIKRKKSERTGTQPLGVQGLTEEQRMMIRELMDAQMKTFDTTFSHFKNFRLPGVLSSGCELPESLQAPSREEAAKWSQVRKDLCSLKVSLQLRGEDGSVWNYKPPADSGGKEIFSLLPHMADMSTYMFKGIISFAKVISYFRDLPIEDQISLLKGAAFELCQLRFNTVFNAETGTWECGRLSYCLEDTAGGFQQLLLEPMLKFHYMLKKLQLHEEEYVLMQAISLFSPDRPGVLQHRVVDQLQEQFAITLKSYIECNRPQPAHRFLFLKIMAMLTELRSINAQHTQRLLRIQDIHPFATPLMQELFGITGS
Assay: Transactivation of human PXR expressed in human HepG2 cells by luciferase reporter gene assay relative to control
Type: cell-based
Conditions: HepG2 cells expressing human PXR, read-out: %max

Structure (SMILES) | Emax
COc1ccc2c(c1)C1CC1(C(=O)N1CC(O)(C(F)(F)F)C1)Cn1c-2c(C2CCCCC2)c2ccc(C(=O)NS(=O)(=O)N(C)C)cc21 (racemic) | 32%
COc1ccc2c(c1)C1CC1(C(=O)N1CC(O)(C(C)C)C1)Cn1c-2c(C2CCCCC2)c2ccc(C(=O)NS(=O)(=O)N(C)C)cc21 (racemic) | 14%
COc1ccc2c(c1)C1CC1(C(=O)N1CC(O)(C3CC3)C1)Cn1c-2c(C2CCCCC2)c2ccc(C(=O)NS(=O)(=O)N(C)C)cc21 (racemic) | 12%
COc1ccc2c(c1)C1CC1(C(=O)N1CC(O)(c3ccccc3)C1)Cn1c-2c(C2CCCCC2)c2ccc(C(=O)NS(=O)(=O)N(C)C)cc21 (racemic) | 10%

Biological target: T2, Nuclear receptor subfamily 1 group I member 2 (Homo sapiens, UniProt O75469)
T2 sequence (O75469 whole entry): T1 sequence (O75469 whole entry)
Assay: Transactivation of human PXR expressed in human HepG2 cells by luciferase reporter gene assay
Type: cell-based
Conditions: not given

EC50 | Structure (SMILES)
> 3000 nM | COc1ccc2c(c1)C1CC1(C(=O)N1CC(O)(C(F)(F)F)C1)Cn1c-2c(C2CCCCC2)c2ccc(C(=O)NS(=O)(=O)N(C)C)cc21 (racemic)
> 50000 nM | COc1ccc2c(c1)C1CC1(C(=O)N1CC(O)(C(C)C)C1)Cn1c-2c(C2CCCCC2)c2ccc(C(=O)NS(=O)(=O)N(C)C)cc21 (racemic)
> 50000 nM | COc1ccc2c(c1)C1CC1(C(=O)N1CC(O)(C3CC3)C1)Cn1c-2c(C2CCCCC2)c2ccc(C(=O)NS(=O)(=O)N(C)C)cc21 (racemic)
> 50000 nM | COc1ccc2c(c1)C1CC1(C(=O)N1CC(O)(c3ccccc3)C1)Cn1c-2c(C2CCCCC2)c2ccc(C(=O)NS(=O)(=O)N(C)C)cc21 (racemic)

The remaining lines, values behind:

Structure (SMILES) | EC50
COc1ccc2c(c1)C1CC1(C(=O)N1CC3CCC(C1)N3)Cn1c-2c(C2CCCCC2)c2ccc(C(=O)NS(=O)(=O)N(C)C)cc21 (racemic) | > 50000 nM
CCN1CC2CCC(C1)N2C(=O)C12CC1c1cc(OC)ccc1-c1c(C3CCCCC3)c3ccc(C(=O)NS(=O)(=O)N(C)C)cc3n1C2 (racemic) | > 50000 nM

System: not listed separately
Assay: Cytotoxicity against human HuH7 cells by Alamar blue assay
Type: cell-based
Conditions: Huh-7 cells

Structure (SMILES) | CC50
COc1ccc2c(c1)C1CC1(C(=O)N1CC3CCC(C1)N3)Cn1c-2c(C2CCCCC2)c2ccc(C(=O)NS(=O)(=O)N(C)C)cc21 (racemic) | > 10000 nM
CCN1CC2CCC(C1)N2C(=O)C12CC1c1cc(OC)ccc1-c1c(C3CCCCC3)c3ccc(C(=O)NS(=O)(=O)N(C)C)cc3n1C2 (racemic) | > 10000 nM
COc1ccc2c(c1)C1CC1(C(=O)N1CC(O)(C(F)(F)F)C1)Cn1c-2c(C2CCCCC2)c2ccc(C(=O)NS(=O)(=O)N(C)C)cc21 (racemic) | > 10000 nM
COc1ccc2c(c1)C1CC1(C(=O)N1CC(O)(C(C)C)C1)Cn1c-2c(C2CCCCC2)c2ccc(C(=O)NS(=O)(=O)N(C)C)cc21 (racemic) | 6500 nM
COc1ccc2c(c1)C1CC1(C(=O)N1CC(O)(C3CC3)C1)Cn1c-2c(C2CCCCC2)c2ccc(C(=O)NS(=O)(=O)N(C)C)cc21 (racemic) | > 10000 nM
COc1ccc2c(c1)C1CC1(C(=O)N1CC(O)(c3ccccc3)C1)Cn1c-2c(C2CCCCC2)c2ccc(C(=O)NS(=O)(=O)N(C)C)cc21 (racemic) | 8000 nM

System: Hepatitis C virus
Assay: Antiviral activity against Hepatitis C virus Con1 genotype 1b infected in human HuH7 cells after 3 days by FRET assay in presence of 40% human serum
Type: functional, organism-based, Hepacivirus hominis
Conditions: isolate Con1, Huh-7, 72 h

Structure (SMILES) | EC50
CCN1CC2CCC(C1)N2C(=O)C12CC1c1cc(OC)ccc1-c1c(C3CCCCC3)c3ccc(C(=O)NS(=O)(=O)N(C)C)cc3n1C2 (racemic) | 37 nM
COc1ccc2c(c1)C1CC1(C(=O)N1CC(O)(C(F)(F)F)C1)Cn1c-2c(C2CCCCC2)c2ccc(C(=O)NS(=O)(=O)N(C)C)cc21 (racemic) | 115 nM
COc1ccc2c(c1)C1CC1(C(=O)N1CC(O)(C(C)C)C1)Cn1c-2c(C2CCCCC2)c2ccc(C(=O)NS(=O)(=O)N(C)C)cc21 (racemic) | 65 nM
COc1ccc2c(c1)C1CC1(C(=O)N1CC(O)(C3CC3)C1)Cn1c-2c(C2CCCCC2)c2ccc(C(=O)NS(=O)(=O)N(C)C)cc21 (racemic) | 68 nM

System: Hepatitis C virus
Assay: Antiviral activity against Hepatitis C virus H77c genotype 1a infected in human HuH7 cells after 3 days by FRET assay
Type: functional, organism-based, Hepacivirus hominis
Conditions: genotype 1a H77, Huh-7, 72 h

EC50 | Structure (SMILES)
15 nM | COc1ccc2c(c1)C1CC1(C(=O)N1CC(O)(C(F)(F)F)C1)Cn1c-2c(C2CCCCC2)c2ccc(C(=O)NS(=O)(=O)N(C)C)cc21 (racemic)
< 14 nM | COc1ccc2c(c1)C1CC1(C(=O)N1CC(O)(C(C)C)C1)Cn1c-2c(C2CCCCC2)c2ccc(C(=O)NS(=O)(=O)N(C)C)cc21 (racemic)
< 14 nM | COc1ccc2c(c1)C1CC1(C(=O)N1CC(O)(C3CC3)C1)Cn1c-2c(C2CCCCC2)c2ccc(C(=O)NS(=O)(=O)N(C)C)cc21 (racemic)
68 nM | COc1ccc2c(c1)C1CC1(C(=O)N1CC(O)(c3ccccc3)C1)Cn1c-2c(C2CCCCC2)c2ccc(C(=O)NS(=O)(=O)N(C)C)cc21 (racemic)

Continued, compound first:

Structure (SMILES) | EC50
COc1ccc2c(c1)C1CC1(C(=O)N1CC3CCC(C1)N3)Cn1c-2c(C2CCCCC2)c2ccc(C(=O)NS(=O)(=O)N(C)C)cc21 (racemic) | 34 nM
CCN1CC2CCC(C1)N2C(=O)C12CC1c1cc(OC)ccc1-c1c(C3CCCCC3)c3ccc(C(=O)NS(=O)(=O)N(C)C)cc3n1C2 (racemic) | 4 nM

System: Hepatitis C virus
Assay: Antiviral activity against Hepatitis C virus Con1 genotype 1b infected in human HuH7 cells after 3 days by FRET assay
Type: functional, organism-based, Hepacivirus hominis
Conditions: isolate Con1, Huh-7, 72 h

EC50 | Structure (SMILES)
50 nM | COc1ccc2c(c1)C1CC1(C(=O)N1CC(O)(C(F)(F)F)C1)Cn1c-2c(C2CCCCC2)c2ccc(C(=O)NS(=O)(=O)N(C)C)cc21 (racemic)
23 nM | COc1ccc2c(c1)C1CC1(C(=O)N1CC(O)(C(C)C)C1)Cn1c-2c(C2CCCCC2)c2ccc(C(=O)NS(=O)(=O)N(C)C)cc21 (racemic)
29 nM | COc1ccc2c(c1)C1CC1(C(=O)N1CC(O)(C3CC3)C1)Cn1c-2c(C2CCCCC2)c2ccc(C(=O)NS(=O)(=O)N(C)C)cc21 (racemic)
160 nM | COc1ccc2c(c1)C1CC1(C(=O)N1CC(O)(c3ccccc3)C1)Cn1c-2c(C2CCCCC2)c2ccc(C(=O)NS(=O)(=O)N(C)C)cc21 (racemic)

Further lines, the compound ahead of its results:

Structure (SMILES) | EC50
COc1ccc2c(c1)C1CC1(C(=O)N1CC3CCC(C1)N3)Cn1c-2c(C2CCCCC2)c2ccc(C(=O)NS(=O)(=O)N(C)C)cc21 (racemic) | 89 nM
CCN1CC2CCC(C1)N2C(=O)C12CC1c1cc(OC)ccc1-c1c(C3CCCCC3)c3ccc(C(=O)NS(=O)(=O)N(C)C)cc3n1C2 (racemic) | 22 nM

System: Liver microsome
Conditions: human, microsomes

Stability | Structure (SMILES)
100% | COc1ccc2c(c1)C1CC1(C(=O)N1CC(O)(C(F)(F)F)C1)Cn1c-2c(C2CCCCC2)c2ccc(C(=O)NS(=O)(=O)N(C)C)cc21 (racemic)
72% | COc1ccc2c(c1)C1CC1(C(=O)N1CC(O)(C(C)C)C1)Cn1c-2c(C2CCCCC2)c2ccc(C(=O)NS(=O)(=O)N(C)C)cc21 (racemic)
100% | COc1ccc2c(c1)C1CC1(C(=O)N1CC(O)(C3CC3)C1)Cn1c-2c(C2CCCCC2)c2ccc(C(=O)NS(=O)(=O)N(C)C)cc21 (racemic)
72% | COc1ccc2c(c1)C1CC1(C(=O)N1CC(O)(c3ccccc3)C1)Cn1c-2c(C2CCCCC2)c2ccc(C(=O)NS(=O)(=O)N(C)C)cc21 (racemic)

The remaining lines, values behind:

Structure (SMILES) | Stability
COc1ccc2c(c1)C1CC1(C(=O)N1CC3CCC(C1)N3)Cn1c-2c(C2CCCCC2)c2ccc(C(=O)NS(=O)(=O)N(C)C)cc21 (racemic) | 100%
CCN1CC2CCC(C1)N2C(=O)C12CC1c1cc(OC)ccc1-c1c(C3CCCCC3)c3ccc(C(=O)NS(=O)(=O)N(C)C)cc3n1C2 (racemic) | 98%

System: Liver microsome
Conditions: rat, microsomes

Stability | Structure (SMILES)
100% | COc1ccc2c(c1)C1CC1(C(=O)N1CC(O)(C(F)(F)F)C1)Cn1c-2c(C2CCCCC2)c2ccc(C(=O)NS(=O)(=O)N(C)C)cc21 (racemic)
100% | COc1ccc2c(c1)C1CC1(C(=O)N1CC(O)(C(C)C)C1)Cn1c-2c(C2CCCCC2)c2ccc(C(=O)NS(=O)(=O)N(C)C)cc21 (racemic)
100% | COc1ccc2c(c1)C1CC1(C(=O)N1CC(O)(C3CC3)C1)Cn1c-2c(C2CCCCC2)c2ccc(C(=O)NS(=O)(=O)N(C)C)cc21 (racemic)
100% | COc1ccc2c(c1)C1CC1(C(=O)N1CC(O)(c3ccccc3)C1)Cn1c-2c(C2CCCCC2)c2ccc(C(=O)NS(=O)(=O)N(C)C)cc21 (racemic)

The next lines start with the compound.

Structure (SMILES) | Stability
COc1ccc2c(c1)C1CC1(C(=O)N1CC3CCC(C1)N3)Cn1c-2c(C2CCCCC2)c2ccc(C(=O)NS(=O)(=O)N(C)C)cc21 (racemic) | 100%
CCN1CC2CCC(C1)N2C(=O)C12CC1c1cc(OC)ccc1-c1c(C3CCCCC3)c3ccc(C(=O)NS(=O)(=O)N(C)C)cc3n1C2 (racemic) | 98%
